According to patent EP2853565A1, “Glutamate receptor photomodulators” (Consejo Superior De Investigaciones Científicas, priority 2013, dated 2015):

Key:
[1] = biological target: T1, rat metabotropic glutamate receptor 5 (mGlu5) (Rattus norvegicus, UniProt P31424); experiment: Single-cell calcium imaging (Fura-2) of quisqualate-evoked calcium oscillations, with photoisomerization by 390/490 nm light; type: cell-based; details: for light dependence of the activity on mGlu5: UV (380/390 nm) and visible (500/490 nm) light
T1 construct: expressed in transfected cells; host or cells: HEK tsA201 cells
T1 sequence (P31424 21-1171 isoform P31424-2 limits assumed): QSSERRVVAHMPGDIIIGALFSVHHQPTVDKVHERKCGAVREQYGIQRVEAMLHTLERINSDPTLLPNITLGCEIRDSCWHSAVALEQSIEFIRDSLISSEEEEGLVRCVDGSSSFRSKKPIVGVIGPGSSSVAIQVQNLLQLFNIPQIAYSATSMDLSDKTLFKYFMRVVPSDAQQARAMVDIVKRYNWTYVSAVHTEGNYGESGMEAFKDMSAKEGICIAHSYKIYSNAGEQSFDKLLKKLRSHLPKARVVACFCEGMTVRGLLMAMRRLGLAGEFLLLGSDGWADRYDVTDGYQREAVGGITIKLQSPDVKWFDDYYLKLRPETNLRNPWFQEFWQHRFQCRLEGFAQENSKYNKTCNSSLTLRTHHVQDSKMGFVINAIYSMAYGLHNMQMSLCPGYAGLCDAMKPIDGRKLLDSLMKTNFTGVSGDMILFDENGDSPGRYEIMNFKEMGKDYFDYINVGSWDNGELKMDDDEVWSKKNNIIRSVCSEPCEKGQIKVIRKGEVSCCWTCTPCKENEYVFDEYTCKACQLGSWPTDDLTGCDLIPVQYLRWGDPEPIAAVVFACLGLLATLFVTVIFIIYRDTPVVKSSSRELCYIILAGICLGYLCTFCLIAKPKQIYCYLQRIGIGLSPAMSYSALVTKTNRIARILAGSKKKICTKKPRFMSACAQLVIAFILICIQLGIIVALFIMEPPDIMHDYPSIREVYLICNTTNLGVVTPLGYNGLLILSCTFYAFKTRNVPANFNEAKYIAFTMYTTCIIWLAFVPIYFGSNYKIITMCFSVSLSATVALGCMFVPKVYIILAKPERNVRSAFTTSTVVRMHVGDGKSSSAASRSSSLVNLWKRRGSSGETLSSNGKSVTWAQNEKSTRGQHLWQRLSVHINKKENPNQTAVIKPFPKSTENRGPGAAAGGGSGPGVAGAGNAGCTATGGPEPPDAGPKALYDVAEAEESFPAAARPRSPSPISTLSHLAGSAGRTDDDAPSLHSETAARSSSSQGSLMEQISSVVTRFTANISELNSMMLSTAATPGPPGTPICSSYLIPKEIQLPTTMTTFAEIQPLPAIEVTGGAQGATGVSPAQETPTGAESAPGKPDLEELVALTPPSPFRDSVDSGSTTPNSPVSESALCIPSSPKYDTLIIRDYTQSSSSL
Protocol: Cell Culture and Transient Transfection: Human embryonic kidney (HEK) tsA201 cells were maintained at 37 °C and humidified atmosphere with 5% CO2; cells were grown in Dulbecco's Modified Eagle's Medium/Nutrient Mixture F-12 Ham (DMEM/F12, 1:1) medium, supplemented with 10% Fetal Bovine Serum (FBS) and antibiotics (1% Penicillin/Streptomycin). Once at confluence, culture flasks were washed twice with PBS and harvested with 300 µl Accutase. Expression of rat mGlu5a was induced by transient transfection of the cDNA-containing plasmid with X-tremeGENE 9 DNA Transfection Reagent. For transfection, cells were seeded at a concentration of 10^6 cells per well on 6-multiwell plates with a final volume of 2ml, and immediately transfected following manufacturer's instructions (100 µl mixture of 3:1 (µl:µg) of X-tremeGENE 9 DNA TR:mGlu5a plasmid in serum-free medium, 20 minutes incubation). About 24h after transfection, HEK tsA201 cells transiently overexpressing mGlu5a were seeded onto 15 mm glass coverslips pre-treated with Poly-L-Lysine to allow cell adhesion. Seeding concentration was maintained between 2/4·10^5 cells to get preconfluent cultures at the time of experiment. Transfected cells were used for single-cell calcium imaging experiments between 48 and 72 hours after transfection.
Single-cell Calcium Imaging: At the time of experiments, glass coverslips were mounted onto the recording chamber, and cells were loaded with the high affinity, ratiometric, intracellular calcium indicator Fura-2 AM; the dye was incubated during 30 minutes at 37°C and 5% CO2, at a final concentration of 10 µM in Ca^2+-free extracellular solution (ES, -Ca^2+). We used a ratiometric calcium sensor in order to avoid bleaching artefacts. Cells were then carefully rinsed with fresh ES, three to four times, before the recording chamber was placed on an inverted fully-motorised digital microscope (iMic 2000, Till Photonics, Gräfelfing, Germany). Images were acquired at room temperature with a UV Apochromat 40x oil objective lens (Olympus, Tokio, Japan). Fura-2 AM was excited consecutively for 10 ms at two different wavelengths (340 and 380 nm) as indicated by the manufacturer (Life Technologies, Paisley, UK) by using a Polychrome V light source (Till Photonics) and a 505 nm dichroic beamsplitter (Chroma Technology, Below Falls, VT, USA); emission at 510 nm was filtered by a D535/40nm emission filter (Chroma Technology) and finally collected by a cooled CCD camera (Interline Transfer IMAGO QE, Till Photonics). The fluorescence measurements (excitation + emission recording) were carried out every 2 seconds, and each measurement takes about 10-50 ms. The 340 and 380 nm images were stored by the TILLvisION imaging software (Till Photonics); the ratio of the emission when the sample was excited at 340 nm and the emission when it was excited at 380 nm was recorded and its mean value was calculated for each cell using the same software. Higher ratios correspond to higher intracellular calcium concentrations.
Agonists and allosteric modulators addition was obtained by carefully pipetting an initial 1:30 dilution of the compound directly into the accessory pool of the recording chamber, obtaining a final dilution of 1:1000 (total DMSO concentration was always lower than 1%). Activation of the agonist was induced in HEK tsA201 mGlu5a transfected cells with the glutamate analogue Quisqualic acid (3 µM). Only evoked, sustained intracellular calcium oscillations were taken into account as consistent cell responses to the application of the agonist; different responses (such as single-peak, peak-and-plateau, etc.), as well as spontaneously oscillating cells, were discarded as unsuitable for calculating the oscillatory frequency.
Solutions and Reagents: The extracellular solution (ES) used for single-cell calcium imaging contained: 140 mM NaCl, 5.4 mM KCI, 1 mM MgCl2, 10 mM HEPES, 10 mM glucose and 2 mM CaCl2 adjusted to pH 7.4 with NaOH. […]

[2] = UV-VIS absorption spectrum before and after irradiation; type: physicochemical; details: solution in DMSO, irradiation with ultraviolet light (380 nm)
[3] = Lipophilicity and solubility observed on handling (data not shown); type: physicochemical
Description: SIB-1757 (48) (Sigma Aldrich) is a moderate-affinity non-competitive antagonist of mGlu5 [J. Pharmacol. Exp. Thr., 1999, 290, 170-181]. […] However, we tested the molecule on a cell line heterogously expressing mGlu5, to ensure that the biological effect of SIB-1757 (48) on the target receptor is not light dependent. […] Moreover, we observed a high lipophilicity of the molecule, and also a low solubility, which make SIB-1757 (48) quite uneasy to handle for biological applications (not shown).

rat mGlu5 receptor = biological target: T2, rat mGlu5 receptor (Rattus norvegicus, UniProt P31424); experiment: IP1 accumulation (IP-One HTRF) in transiently transfected HEK293 cells; type: cell-based; details: IP1 production, HEK293 cells with rat mGlu5 and EAAC1, 30 min incubation, 100 nM Quisqualate
T2 construct: expressed in transfected cells; host or cells: HEK293 cells (EAAC1 glutamate transporter cotransfected)
T2 sequence (P31424 21-1203): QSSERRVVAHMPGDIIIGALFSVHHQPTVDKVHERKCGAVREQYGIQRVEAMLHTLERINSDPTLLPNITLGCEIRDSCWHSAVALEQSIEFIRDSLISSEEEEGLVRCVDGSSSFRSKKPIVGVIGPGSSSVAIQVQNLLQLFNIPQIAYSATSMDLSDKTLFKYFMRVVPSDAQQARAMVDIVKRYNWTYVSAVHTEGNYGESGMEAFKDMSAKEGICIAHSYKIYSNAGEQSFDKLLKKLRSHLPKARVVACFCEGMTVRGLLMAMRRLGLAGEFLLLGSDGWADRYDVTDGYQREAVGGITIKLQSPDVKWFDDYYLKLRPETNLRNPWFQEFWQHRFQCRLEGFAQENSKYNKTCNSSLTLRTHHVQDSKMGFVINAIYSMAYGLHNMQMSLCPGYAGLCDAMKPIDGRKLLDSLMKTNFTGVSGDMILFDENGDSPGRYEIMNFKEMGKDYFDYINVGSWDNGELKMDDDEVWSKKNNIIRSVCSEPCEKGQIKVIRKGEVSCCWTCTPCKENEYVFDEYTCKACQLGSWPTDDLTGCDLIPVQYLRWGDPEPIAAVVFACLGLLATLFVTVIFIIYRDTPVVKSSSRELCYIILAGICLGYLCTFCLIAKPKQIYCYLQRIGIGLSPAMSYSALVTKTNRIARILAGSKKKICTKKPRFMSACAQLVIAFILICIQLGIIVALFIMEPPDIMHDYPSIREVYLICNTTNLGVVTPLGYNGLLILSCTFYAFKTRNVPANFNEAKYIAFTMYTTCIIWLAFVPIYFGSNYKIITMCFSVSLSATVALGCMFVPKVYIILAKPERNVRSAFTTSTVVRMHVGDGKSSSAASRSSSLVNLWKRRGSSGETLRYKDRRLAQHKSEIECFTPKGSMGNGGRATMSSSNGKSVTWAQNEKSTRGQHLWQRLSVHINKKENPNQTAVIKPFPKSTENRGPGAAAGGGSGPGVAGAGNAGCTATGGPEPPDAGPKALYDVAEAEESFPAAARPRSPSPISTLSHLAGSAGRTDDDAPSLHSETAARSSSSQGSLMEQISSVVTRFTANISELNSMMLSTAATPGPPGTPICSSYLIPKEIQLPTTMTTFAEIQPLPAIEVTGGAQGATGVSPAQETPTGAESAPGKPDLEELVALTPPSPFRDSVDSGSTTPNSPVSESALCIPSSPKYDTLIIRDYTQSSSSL
Protocol: Pharmacological experiments on mGlu receptors were performed in HEK293 cells cultured in Dulbecco's modified Eagle's medium (GIBCO-BRL Life Technologies Inc., Cergy Pontoise, France) supplemented with 10% fetal calf serum (FCS, GIBCO-BRL Life Technologies., Cergy Pontoise, France). The compounds were tested on a rat mGlu5 receptor, which was transiently transfected in HEK293 cells by electroporation as described elsewhere [Neuropharmacology 1998, 37, 1043-1051]. Additionally, a plasmid encoding the high-affinity glutamate transporter EAAC1 was cotransfected to prevent the influence of the glutamate released by the cells in the medium. Receptor activity is monitored by measurement of IP1 production using the kit IP-One HTRF® Assay from Cisbio Bioassays (France). For IP1 accumulation measurements, cells were seeded after transfection in polyornithine-coated, black-walled 96-well Polystyrene Cell Culture Microplates (Greiner Bio-One SAS, France) and cultured for 24 h in glutamate/glutamine-free medium (GIBCO-BRL Life Technologies Inc., Cergy Pontoise, France) and antibiotics (penicillin and streptomycin, 100 UmL_1 final, GIBCO-BRL Life Technologies). Media was removed and cells were incubated for 30min in a solution containing the drugs at the tested concentrations. The IP-One stimulation buffer, provided with the kit IP-One (Cisbio Bioassays, France), contains lithium chloride (LiCl) at 50mM that inhibits the degradation of IP1 to Myo-inositol, which is then accumulated in the cell. HTRF reagents, monoclonal antibody specific to IP1 labelled with terbium cryptate and IP1 coupled with the dye d2, diluted in a Lysis buffer were added. After 1 hour of incubation, time resolved fluorescence at 620nm and 665nm was measured with RUBYstar (BMG Labtech, Germany). The specific signal, which results from the energy transfer between […], is proportional to the ratio between the fluorescence emitted at 620 nm and 665 nm, and consequently to the concentration of IP1 in the lysate. All points were determined in triplicate. The dose-response curves were fitted using GraphPad Prism software and the following equation: y= [(ymax-ymin)/(1+10^(LogIC50-x))]+ymin, in which IC50 is the concentration of the compound necessary to obtain the half-maximal effect. (10 µM ≤ IC50 < 50 µM +; 2 µM ≤ IC50 < 10 µM ++; 500 nM ≤ IC50 < 2 µM +++; 100 nM ≤ IC50<500 nM ++++; IC50< 100 nM +++++) Table 14.

[4] = 3 µM quisqualate, HEK tsA201 cells

Structure (SMILES) | effect on mGlu5 response (calcium oscillations) [1, 4] | light dependence of the activity on mGlu5 ([1]; 3 µM quisqualate) | also measured
COc1cc(/C=C\c2ccccn2)ccc1NC(=O)c1ccccc1Cl [(Z)-47, (Z)-2-Chloro-N-(2-methoxy-4-(2-(pyridin-2-yl)vinyl)phenyl)benzamide, reference compound] | inhibits mGlu5 activation |  | 
COc1cc(/C=C/c2ccccn2)ccc1NC(=O)c1ccccc1Cl [(E)-47, (E)-2-Chloro-N-(2-methoxy-4-(2-(pyridin-2-yl)vinyl)phenyl)benzamide, reference compound] | blocked the oscillatory responses of quisqualate |  | 
Cc1ccc(O)c(/N=N/c2ccccc2)n1 [SIB-1757] | clearly an antagonist of mGlu5 | not light-dependent | photoswitch in the UV-VIS absorption spectrum [2]: did not reveal any photoswitch; lipophilicity [3]: high; solubility [3]: low
COc1cc(/N=N\c2ccccn2)ccc1NC(=O)c1ccccc1Cl [(Z)-1c, (Z)-2-chloro-N-(2-methoxy-4-(pyridin-2-yldiazenyl)phenyl)benzamide] | increases this response |  | 
COc1cc(/N=N/c2ccccn2)ccc1NC(=O)c1ccccc1Cl [Compound 1c, (E)-2-Chloro-N-(2-methoxy-4-(pyridin-2-yldiazenyl)phenyl)benzamide] | inhibit mGlu5 response | could be reversibly switched on and off at 390 nm and 490 nm | IC50 (rat mGlu5 receptor): < 100 nM; oscillatory frequency at 390 nm ([1]; 100 nM compound, 390 nm illumination, compared with quisqualate alone): significantly higher than with quisqualate alone; oscillatory responses to 3 µM quisqualate ([1]; 100 nM compound, in the dark or under 490 nm light): completely blocked; IC50 ([1]; in the dark or under 490 nm light, 3 µM quisqualate, HEK tsA201 cells, read-out: IC50 (inhibitory profile on calcium oscillations)): 30 nM
